Reference: ChEMBL document CHEMBL5724914, “Linking interpersonal differences in gut microbiota composition and drug biotransformation activity” (2024)

Experiments:
[1] = The drug is tested on WLS-082 corresponding to human gut metagenome with ENA study accession number: PRJEB37062 and ENA sample accession number: ERS12561751 for biotransformation under anaerobic condition. The drug concentrations were measured over 9 timepoints collected between 0 and 24 hours of incubation by liquid-chromatography-coupled mass spectrometry (LC–MS); conditions: 2 µM
[2] = The drug is tested on WLS-007 corresponding to human gut metagenome with ENA study accession number: PRJEB37062 and ENA sample accession number: ERS12561742 for biotransformation under anaerobic condition. The drug concentrations were measured over 9 timepoints collected between 0 and 24 hours of incubation by liquid-chromatography-coupled mass spectrometry (LC–MS); conditions: 2 µM
[3] = human gut metagenome, 24 h, 2 µM
[4] = The drug is tested on WLS-010 corresponding to human gut metagenome with ENA study accession number: PRJEB37062 and ENA sample accession number: ERS12561743 for biotransformation under anaerobic condition. The drug concentrations were measured over 9 timepoints collected between 0 and 24 hours of incubation by liquid-chromatography-coupled mass spectrometry (LC–MS); conditions: 2 µM
[5] = The drug is tested on WLS-090 corresponding to human gut metagenome with ENA study accession number: PRJEB37062 and ENA sample accession number: ERS12561753 for biotransformation under anaerobic condition. The drug concentrations were measured over 9 timepoints collected between 0 and 24 hours of incubation by liquid-chromatography-coupled mass spectrometry (LC–MS); conditions: 2 µM
[6] = The drug is tested on Z-013 corresponding to rabbit gut metagenome with ENA study accession number: PRJEB37062 and ENA sample accession number: ERS12561813 for biotransformation under anaerobic condition. The drug concentrations were measured over 9 timepoints collected between 0 and 24 hours of incubation by liquid-chromatography-coupled mass spectrometry (LC–MS); conditions: 2 µM
[7] = The drug is tested on WLS-069 corresponding to human gut metagenome with ENA study accession number: PRJEB37062 and ENA sample accession number: ERS12561748 for biotransformation under anaerobic condition. The drug concentrations were measured over 9 timepoints collected between 0 and 24 hours of incubation by liquid-chromatography-coupled mass spectrometry (LC–MS); conditions: 2 µM
[8] = human gut metagenome, 24 h, 2 µM; remark: listed apart in the source
[9] = human gut metagenome, 24 h, 2 µM; remark: listed apart in the source
[10] = human gut metagenome, 24 h, 2 µM; remark: listed apart in the source
[11] = The drug is tested on Z-008 corresponding to metagenome with ENA study accession number: PRJEB37062 and ENA sample accession number: ERS12561808 for biotransformation under anaerobic condition. The drug concentrations were measured over 9 timepoints collected between 0 and 24 hours of incubation by liquid-chromatography-coupled mass spectrometry (LC–MS); conditions: 2 µM
[12] = human gut metagenome, 24 h, 2 µM; remark: listed apart in the source
[13] = human gut metagenome, 24 h, 2 µM; remark: listed apart in the source
[14] = human gut metagenome, 24 h, 2 µM; remark: listed apart in the source
[15] = human gut metagenome, 24 h, 2 µM; remark: listed apart in the source
[16] = The drug is tested on WLS-370 corresponding to human gut metagenome with ENA study accession number: PRJEB37062 and ENA sample accession number: ERS12561793 for biotransformation under anaerobic condition. The drug concentrations were measured over 9 timepoints collected between 0 and 24 hours of incubation by liquid-chromatography-coupled mass spectrometry (LC–MS); conditions: 2 µM
[17] = The drug is tested on Z-025 corresponding to rabbit gut metagenome with ENA study accession number: PRJEB37062 and ENA sample accession number: ERS12561824 for biotransformation under anaerobic condition. The drug concentrations were measured over 9 timepoints collected between 0 and 24 hours of incubation by liquid-chromatography-coupled mass spectrometry (LC–MS); conditions: 2 µM
[18] = The drug is tested on Z-014 corresponding to rat gut metagenome with ENA study accession number: PRJEB37062 and ENA sample accession number: ERS12561814 for biotransformation under anaerobic condition. The drug concentrations were measured over 9 timepoints collected between 0 and 24 hours of incubation by liquid-chromatography-coupled mass spectrometry (LC–MS); conditions: 2 µM
[19] = The drug is tested on WLS-027 corresponding to human gut metagenome with ENA study accession number: PRJEB37062 and ENA sample accession number: ERS12561744 for biotransformation under anaerobic condition. The drug concentrations were measured over 9 timepoints collected between 0 and 24 hours of incubation by liquid-chromatography-coupled mass spectrometry (LC–MS); conditions: 2 µM
[20] = The drug is tested on Z-030 corresponding to mouse gut metagenome with ENA study accession number: PRJEB37062 and ENA sample accession number: ERS12561829 for biotransformation under anaerobic condition. The drug concentrations were measured over 9 timepoints collected between 0 and 24 hours of incubation by liquid-chromatography-coupled mass spectrometry (LC–MS); conditions: 2 µM
Note: call rule not given here.

Bacterial Biotransformation [1]	Bacterial Biotransformation [2]	Bacterial Biotransformation [3]	Bacterial Biotransformation [4]	Bacterial Biotransformation [5]	Bacterial Biotransformation [6]	Bacterial Biotransformation [7]	Bacterial Biotransformation [8]	Bacterial Biotransformation [9]	Bacterial Biotransformation [10]	Bacterial Biotransformation [11]	Bacterial Biotransformation [12]	Bacterial Biotransformation [13]	Bacterial Biotransformation [14]	Bacterial Biotransformation [15]	Bacterial Biotransformation [16]	Bacterial Biotransformation [17]	Bacterial Biotransformation [18]	Bacterial Biotransformation [19]	Bacterial Biotransformation [20]	SMILES
Compound NOT metabolized	Compound NOT metabolized	Compound metabolized	Compound NOT metabolized	Compound metabolized	Compound NOT metabolized	Compound metabolized	Compound metabolized	Compound metabolized	Compound metabolized	Compound NOT metabolized	Compound NOT metabolized	Compound NOT metabolized	Compound NOT metabolized	Compound metabolized	Compound NOT metabolized	Compound metabolized	Compound NOT metabolized	Compound metabolized	Compound NOT metabolized	CC(CN1c2ccccc2Sc2ccccc21)N(C)C (stereo not given) [PROMETHAZINE]
Compound metabolized	Compound NOT metabolized	Compound metabolized	Compound metabolized	Compound metabolized	Compound metabolized	Compound metabolized	Compound metabolized	Compound metabolized	Compound metabolized	Compound metabolized	Compound NOT metabolized	Compound metabolized	Compound metabolized	Compound metabolized	Compound metabolized	Compound NOT metabolized	Compound metabolized	Compound metabolized	Compound NOT metabolized	CCC(=O)NCC[C@@H]1CCc2ccc3c(c21)CCO3 [RAMELTEON]
Compound metabolized	Compound NOT metabolized	Compound metabolized	Compound NOT metabolized	Compound NOT metabolized	Compound NOT metabolized	Compound metabolized	Compound NOT metabolized	Compound NOT metabolized	Compound NOT metabolized	Compound NOT metabolized	Compound metabolized	Compound metabolized	Compound metabolized	Compound NOT metabolized	Compound NOT metabolized	Compound NOT metabolized	Compound metabolized	Compound NOT metabolized	Compound NOT metabolized	CNC(=C[N+](=O)[O-])NCCSCc1ccc(CN(C)C)o1 [RANITIDINE]

The next lines start with the compound.

SMILES	Bacterial Biotransformation [1]	Bacterial Biotransformation [2]	Bacterial Biotransformation [3]	Bacterial Biotransformation [4]	Bacterial Biotransformation [5]	Bacterial Biotransformation [6]	Bacterial Biotransformation [7]	Bacterial Biotransformation [8]	Bacterial Biotransformation [9]	Bacterial Biotransformation [10]	Bacterial Biotransformation [11]	Bacterial Biotransformation [12]	Bacterial Biotransformation [13]	Bacterial Biotransformation [14]	Bacterial Biotransformation [15]	Bacterial Biotransformation [16]	Bacterial Biotransformation [17]	Bacterial Biotransformation [18]	Bacterial Biotransformation [19]	Bacterial Biotransformation [20]
OCCOCCN1CCN(C2=Nc3ccccc3Sc3ccccc32)CC1 [QUETIAPINE]	Compound NOT metabolized	Compound NOT metabolized	Compound metabolized	Compound NOT metabolized	Compound metabolized	Compound NOT metabolized	Compound NOT metabolized	Compound metabolized	Compound NOT metabolized	Compound metabolized	Compound NOT metabolized	Compound NOT metabolized	Compound metabolized	Compound NOT metabolized	Compound metabolized	Compound metabolized	Compound metabolized	Compound NOT metabolized	Compound metabolized	Compound NOT metabolized
Nc1nc2ccc(OC(F)(F)F)cc2s1 [RILUZOLE]	Compound metabolized	Compound metabolized	Compound metabolized	Compound metabolized	Compound metabolized	Compound NOT metabolized	Compound metabolized	Compound metabolized	Compound NOT metabolized	Compound metabolized	Compound metabolized	Compound metabolized	Compound metabolized	Compound NOT metabolized	Compound metabolized	Compound metabolized	Compound NOT metabolized	Compound NOT metabolized	Compound metabolized	Compound NOT metabolized
CC(C)c1nc(CN(C)C(=O)N[C@H](C(=O)N[C@@H](Cc2ccccc2)C[C@H](O)[C@H](Cc2ccccc2)NC(=O)OCc2cncs2)C(C)C)cs1 [RITONAVIR]	Compound metabolized	Compound metabolized	Compound metabolized	Compound metabolized	Compound metabolized	Compound metabolized	Compound metabolized	Compound metabolized	Compound NOT metabolized	Compound metabolized	Compound metabolized	Compound metabolized	Compound metabolized	Compound NOT metabolized	Compound metabolized	Compound metabolized	Compound metabolized	Compound metabolized	Compound metabolized	Compound NOT metabolized
